Laboratory results published in patent US11498899B2, “Nitrone herbicides” (FMC Corporation, priority 2016, dated 2022).

What was measured:
[1] = test system: barnyardgrass (Echinochloa crus-galli); test: Test A preemergence, visual injury rating 0-100 (0 no effect, 100 complete control); assay type: in vivo
[2] = test system: foxtail, giant (giant foxtail, Setaria faberii); test: Test A preemergence, visual injury rating 0-100; assay type: in vivo
[3] = test system: kochia (Kochia scoparia); test: Test A preemergence, visual injury rating 0-100; assay type: in vivo
[4] = test system: pigweed (Amaranthus retroflexus); test: Test A preemergence, visual injury rating 0-100; assay type: in vivo
[5] = test system: ragweed (common ragweed, Ambrosia elatior); test: Test A preemergence, visual injury rating 0-100; assay type: in vivo
[6] = test system: ryegrass, Italian (Italian ryegrass, Lolium multiflorum); test: Test A preemergence, visual injury rating 0-100; assay type: in vivo
[7] = test system: barnyardgrass (Echinochloa crus-galli); test: Test A postemergence, visual injury rating 0-100; assay type: in vivo; details: 0 to 100 scale
[8] = test system: blackgrass (Alopecurus myosuroides); test: Test A postemergence, visual injury rating 0-100; assay type: in vivo; details: 0 to 100 scale
[9] = test system: corn (Zea mays); test: Test A postemergence, visual injury rating 0-100; assay type: in vivo; details: 0 to 100 scale
[10] = test system: foxtail, giant (giant foxtail, Setaria faberii); test: Test A postemergence, visual injury rating 0-100; assay type: in vivo; details: 0 to 100 scale
[11] = test system: galium (catchweed bedstraw, Galium aparine); test: Test A postemergence, visual injury rating 0-100; assay type: in vivo; details: 0 to 100 scale
[12] = test system: kochia (Kochia scoparia); test: Test A postemergence, visual injury rating 0-100; assay type: in vivo; details: 0 to 100 scale
[13] = test system: pigweed (Amaranthus retroflexus); test: Test A postemergence, visual injury rating 0-100; assay type: in vivo; details: 0 to 100 scale
[14] = test system: ragweed (common ragweed, Ambrosia elatior); test: Test A postemergence, visual injury rating 0-100; assay type: in vivo; details: 0 to 100 scale
[15] = test system: ryegrass, Italian (Italian ryegrass, Lolium multiflorum); test: Test A postemergence, visual injury rating 0-100; assay type: in vivo; details: 0 to 100 scale
[16] = test system: wheat (Triticum aestivum); test: Test A postemergence, visual injury rating 0-100; assay type: in vivo; details: 0 to 100 scale
[17] = test system: ducksalad (Heteranthera limosa); test: Test B flooded paddy test, visual rating 0-100; details: Flood, 250 g ai/ha, applied to paddy water, rated after 13 to 15 days
[18] = test system: barnyardgrass (Echinochloa crus-galli); test: Test B flooded paddy test, visual rating 0-100; details: Flood, 250 g ai/ha, applied to paddy water, rated after 13 to 15 days
[19] = test system: rice (Oryza sativa); test: Test B flooded paddy test, visual rating 0-100 (0 no effect, 100 complete control); details: Flood, 250 g ai/ha, applied to paddy water, rated after 13 to 15 days

| SMILES | Barnyardgrass plant response rating (0 to 100 scale) ([1]; 125 g ai/ha) | Foxtail, Giant plant response rating (0 to 100 scale) ([2]; 125 g ai/ha) | Kochia plant response rating (0 to 100 scale) ([3]; 125 g ai/ha) | Pigweed plant response rating (0 to 100 scale) ([4]; 125 g ai/ha) | Ragweed plant response rating (0 to 100 scale) ([5]; 125 g ai/ha) | Barnyardgrass plant response rating ([7]; 125 g ai/ha) | Barnyardgrass plant response rating ([7]; 500 g ai/ha) | Blackgrass plant response rating ([8]; 125 g ai/ha) | Blackgrass plant response rating ([8]; 500 g ai/ha) | Corn plant response rating ([9]; 125 g ai/ha) | Corn plant response rating ([9]; 500 g ai/ha) | Foxtail, Giant plant response rating ([10]; 125 g ai/ha) | Foxtail, Giant plant response rating ([10]; 500 g ai/ha) | Galium plant response rating ([11]; 125 g ai/ha) | Galium plant response rating ([11]; 500 g ai/ha) | Kochia plant response rating ([12]; 125 g ai/ha) | Kochia plant response rating ([12]; 500 g ai/ha) | Pigweed plant response rating ([13]; 125 g ai/ha) | Pigweed plant response rating ([13]; 500 g ai/ha) | Ragweed plant response rating ([14]; 125 g ai/ha) | also measured |
| --- | --- | --- | --- | --- | --- | --- | --- | --- | --- | --- | --- | --- | --- | --- | --- | --- | --- | --- | --- | --- | --- |
| CC1=[N+]([O-])[C@@H](C(=O)Nc2cccc(F)c2F)[C@H](c2ccc(C(F)(F)F)cc2)C1 (relative stereo) [Compound 2, trans-N-(2,3-difluorophenyl)-3,4-dihydro-5-methyl-3-[4-(trifluoromethyl)phenyl]-2H-pyrrole-2-carboxamide 1-oxide] | 90 | 100 | 90 | 90 | 40 | 70 | 90 | 20 | 90 | 40 | 80 | 90 | 90 | 70 | 70 | 40 | 80 | 40 | 80 | 30 | Barnyardgrass plant response rating ([1]; 500 g ai/ha, 0 to 100 scale): 100; Foxtail, Giant plant response rating ([2]; 500 g ai/ha, 0 to 100 scale): 100; Kochia plant response rating ([3]; 500 g ai/ha, 0 to 100 scale): 80; Pigweed plant response rating ([4]; 500 g ai/ha, 0 to 100 scale): 90; Ragweed plant response rating ([5]; 500 g ai/ha, 0 to 100 scale): 90; Ryegrass, Italian plant response rating (0 to 100 scale) ([6]; 125 g ai/ha): 30; Ryegrass, Italian plant response rating ([6]; 500 g ai/ha, 0 to 100 scale): 50; Ragweed plant response rating ([14]; 500 g ai/ha): 60; Ryegrass, Italian plant response rating ([15]; 125 g ai/ha): 60; Ryegrass, Italian plant response rating ([15]; 500 g ai/ha): 70; Wheat plant response rating ([16]; 125 g ai/ha): 40; Wheat plant response rating ([16]; 500 g ai/ha): 70; Ducksalad plant response rating (0 to 100 scale) [17]: 90; Barnyardgrass plant response rating (0 to 100 scale) [18]: 70; Rice plant response rating (0 to 100 scale) [19]: 0 |
| CC1=[N+]([O-])C(C(=O)Nc2cccc(F)c2F)C(c2cc(C)n(Cc3ccc(Cl)cc3)c(=O)c2)C1 (racemic) [Compound 86] | 0 | 0 | 0 | 0 | 0 | 0 | 0 | 0 | 0 | 0 | 10 | 0 | 0 | 0 | 0 | 0 | 0 | 0 | 0 | 0 | Barnyardgrass plant response rating (0 to 100 scale) ([1]; 500 g ai/ha): 0; Foxtail, Giant plant response rating (0 to 100 scale) ([2]; 500 g ai/ha): 0; Kochia plant response rating (0 to 100 scale) ([3]; 500 g ai/ha): 0; Pigweed plant response rating (0 to 100 scale) ([4]; 500 g ai/ha): 0; Ragweed plant response rating (0 to 100 scale) ([5]; 500 g ai/ha): 0; Ryegrass, Italian plant response rating (0 to 100 scale) ([6]; 125 g ai/ha): 0; Ryegrass, Italian plant response rating (0 to 100 scale) ([6]; 500 g ai/ha): 0; Ragweed plant response rating ([14]; 500 g ai/ha): 0; Ryegrass, Italian plant response rating ([15]; 125 g ai/ha): 0; Ryegrass, Italian plant response rating ([15]; 500 g ai/ha): 0; Wheat plant response rating ([16]; 125 g ai/ha): 0; Wheat plant response rating ([16]; 500 g ai/ha): 0; Ducksalad plant response rating (0 to 100 scale) [17]: 0; Barnyardgrass plant response rating (0 to 100 scale) [18]: 0; Rice plant response rating (0 to 100 scale) [19]: 0 |
| CC1=[N+]([O-])C(C(=O)Nc2cccc(F)c2F)C(c2cccc(Oc3ncc(Cl)cn3)c2)C1 (racemic) [Compound 115] | 90 | 20 | 0 | 0 | 0 | 0 | 60 | 40 | 80 | 0 | 60 | 0 | 70 | 40 | 70 | 0 | 20 | 0 | 20 | 0 | Barnyardgrass plant response rating (0 to 100 scale) ([1]; 500 g ai/ha): 90; Foxtail, Giant plant response rating (0 to 100 scale) ([2]; 500 g ai/ha): 90; Kochia plant response rating (0 to 100 scale) ([3]; 500 g ai/ha): 30; Pigweed plant response rating (0 to 100 scale) ([4]; 500 g ai/ha): 0; Ragweed plant response rating (0 to 100 scale) ([5]; 500 g ai/ha): 20; Ryegrass, Italian plant response rating (0 to 100 scale) ([6]; 500 g ai/ha): 80; Ragweed plant response rating ([14]; 500 g ai/ha): 20; Ryegrass, Italian plant response rating ([15]; 125 g ai/ha): 0; Ryegrass, Italian plant response rating ([15]; 500 g ai/ha): 60; Wheat plant response rating ([16]; 125 g ai/ha): 10; Wheat plant response rating ([16]; 500 g ai/ha): 50; Ducksalad plant response rating (0 to 100 scale) [17]: 0; Barnyardgrass plant response rating (0 to 100 scale) [18]: 0; Rice plant response rating (0 to 100 scale) [19]: 0 |
